Test results reported in BindingDB's records for doi:10.1124/mol.58.6.1310 (Pfizer, 2000).
pKi: −log10 of the molar value.

biological target: Glutamate receptor 3 (Rattus norvegicus, UniProt P19492)
Sequence (P19492 whole entry): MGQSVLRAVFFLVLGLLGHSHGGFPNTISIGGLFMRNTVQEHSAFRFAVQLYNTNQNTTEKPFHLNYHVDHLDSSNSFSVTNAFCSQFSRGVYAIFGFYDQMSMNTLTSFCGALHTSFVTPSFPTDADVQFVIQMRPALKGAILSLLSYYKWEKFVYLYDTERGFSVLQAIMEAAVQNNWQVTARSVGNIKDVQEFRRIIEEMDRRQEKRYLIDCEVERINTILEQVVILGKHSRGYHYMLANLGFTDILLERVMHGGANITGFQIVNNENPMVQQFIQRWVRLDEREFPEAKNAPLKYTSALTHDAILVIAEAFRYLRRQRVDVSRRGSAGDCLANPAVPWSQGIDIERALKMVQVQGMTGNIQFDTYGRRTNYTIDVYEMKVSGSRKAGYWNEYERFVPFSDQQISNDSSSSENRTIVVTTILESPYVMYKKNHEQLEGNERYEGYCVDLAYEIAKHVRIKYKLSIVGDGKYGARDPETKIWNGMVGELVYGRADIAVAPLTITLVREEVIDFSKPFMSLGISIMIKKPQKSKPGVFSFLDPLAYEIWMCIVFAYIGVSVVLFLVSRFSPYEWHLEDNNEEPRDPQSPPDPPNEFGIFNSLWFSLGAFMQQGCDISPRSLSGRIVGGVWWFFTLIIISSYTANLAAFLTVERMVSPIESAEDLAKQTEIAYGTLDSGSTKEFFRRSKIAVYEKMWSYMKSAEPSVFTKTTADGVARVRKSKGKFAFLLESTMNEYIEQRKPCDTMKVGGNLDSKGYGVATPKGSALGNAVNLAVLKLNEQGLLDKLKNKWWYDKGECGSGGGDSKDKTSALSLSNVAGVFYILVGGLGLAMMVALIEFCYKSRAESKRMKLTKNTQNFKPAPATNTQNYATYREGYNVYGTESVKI

SMILES	pKi
N#Cc1cccc(/C=C/c2nc3ccc(F)cc3c(=O)n2-c2ccccc2Cl)n1	8.52
Cc1ncccc1-n1c(/C=C/C2CS[C@H](C)N2)nc2ccccc2c1=O (stereo not given in full) [CP-471237]	< 5.00
CC1=NN=C(c2ccc(N)cc2)c2cc3c(cc2C1)OCO3 [GYKI-52466]	< 5.00
Cc1ncccc1-n1c(/C=C/C2CSC(C)N2)nc2ccccc2c1=O (stereo not given) [CP-471236]	7.24
CCN(CC)Cc1cccc(/C=C/c2nc3ccc(F)cc3c(=O)n2-c2ccccc2Cl)n1 [(R)-3-(2-Chloro-phenyl)-2-[(E)-2-(6-diethylaminomethyl-pyridin-2-yl)-vinyl]-6-fluoro-3H-quinazolin-4-one]	7.60
